Test results reported in patent US12195427B2, “MASP-2 inhibitors and methods of use” (priority 2018, dated 2025).
Counter-ions that a name gives are not always drawn.

Biological target: MASP-2 CCP2-SP (Homo sapiens (Human), UniProt O00187)
Test: MASP-2 co-crystallization, X-ray crystallography and structure analysis (H-bonds, van der Waals contacts);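 for Ligand-pharmacophore element distance, pharmacophore element C2: distance from averaged pharmacophore element to bound ligand; missing value means element absent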;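 for Ligand-pharmacophore element distance, pharmacophore element C3: distance from averaged pharmacophore element to bound ligand; missing value means element absent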;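 for Ligand-pharmacophore element distance, pharmacophore element C4: distance from averaged pharmacophore element to bound ligand; missing value means element absent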;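 for Ligand-pharmacophore element distance, pharmacophore element C5: distance from averaged pharmacophore element to bound ligand; missing value means element absent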
Set-up: van der Waals contact distance, MASP-2 HIS 483 atom CD2 / van der Waals contact distance, MASP-2 HIS 483 atom NE2 / van der Waals contact distance, SER 654 C to compound atom / van der Waals contact distance, SER 654 O to compound atom / van der Waals contact distance, TRP 655 C to compound atom / van der Waals contact distance, MASP-2 GLY 528 atom CA / van der Waals contact distance TRP 655 atom CZ3 / van der Waals contact distance TRP 655 atom N / van der Waals contact distance TRP 655 atom CE3 / van der Waals contact distance GLY 656 atom C / van der Waals contact distance GLY 656 atom CA / van der Waals contact distance GLY 656 atom O / van der Waals contact distance, MASP-2 TYR 607 atom CD1 / van der Waals contact distance, MASP-2 PRO 606 atom O / d(C3,CA1) / d(CA1,N1)2 / d(H4,O1) / d(H4,O2) / d(O1,O2) / d(CA1,O2) / d(CA6,O1) / d(CA6,O2) / d(CA1,C5) / d(O2,H3) / d(N2,C2) / d(CA5,N2) / d(N2,C4) / d(N2,C6) / d(N2,CA3) / d(N2,O3) / d(O4,H2): unit not given beside the values
Conditions: for Ligand-pharmacophore element distance, pharmacophore element C2 / Ligand-pharmacophore element distance, pharmacophore element C3 / Ligand-pharmacophore element distance, pharmacophore element C4 / Ligand-pharmacophore element distance, pharmacophore element C5 / Ligand-pharmacophore element distance, pharmacophore element C6 / Ligand-pharmacophore element distance, pharmacophore element C7 / Ligand-pharmacophore element distance, pharmacophore element CA1 / Ligand-pharmacophore element distance, pharmacophore element CA2 / Ligand-pharmacophore element distance, pharmacophore element CA3 / Ligand-pharmacophore element distance, pharmacophore element CA4 / Ligand-pharmacophore element distance, pharmacophore element CA5 / Ligand-pharmacophore element distance, pharmacophore element CA6: Table A4-1; for d(O2,H3) / d(N2,C2) / d(N2,CA2) / d(O2,N2): Table A5-2 pharmacophore distance, S3/S4 region; for a(O1, O2, H3) / a(O1, O2, N2) / a(O2, N2, C2) / a(O2, N2, CA2): Table A6-2 pharmacophore angle; for a(N1, CA1, O1) b): Methyl-amino-pyridine compounds; for Pharmacophore torsion angle a(O1, O2, N2, CA2) / Pharmacophore torsion angle a(O1, O2, N2, CA4): Table A7-2
Procedure, shortened: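 Inhibitor complexes were obtained by soaking crystals of E. coli-derived human MASP-2 CCP2-SP. Synchrotron diffraction at 1.0 wavelength, molecular replacement and partial refinement gave the models; one pose per ligand was chosen for contact analysis.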

[1] = Table A5-1 pharmacophore: distance between elements, S2/S1 region
[2] = Table A7-1, between pharmacophore elements of the bound compound
[3] = between pharmacophore elements of the bound compound

MASP-2 CCP2-SP, sequence (O00187 445-686): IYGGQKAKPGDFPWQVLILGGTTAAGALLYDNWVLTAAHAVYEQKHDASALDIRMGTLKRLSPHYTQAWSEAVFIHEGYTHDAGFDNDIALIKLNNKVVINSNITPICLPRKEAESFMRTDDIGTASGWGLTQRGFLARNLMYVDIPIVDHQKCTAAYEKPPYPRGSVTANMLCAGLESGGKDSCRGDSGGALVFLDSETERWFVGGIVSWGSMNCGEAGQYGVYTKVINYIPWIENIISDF
MASP-2 CCP2-SP, sequence (O00187 364-432 partner): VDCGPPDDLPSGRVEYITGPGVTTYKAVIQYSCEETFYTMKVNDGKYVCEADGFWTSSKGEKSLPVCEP

With `Cc1cnc(NCCc2ccccc2)c(=O)n1CC(=O)NCc1ccc2nc(N)[nH]c2c1` [compound 1492, N-((2-Amino-1H-benzo[d]imidazol-6-yl)methyl)-2-(6-methyl-2-oxo-3-(phenethylamino)pyrazin-1(2H)-yl)acetamide Trifluoroacetamide salt] the “H-bond distance to MASP-2 ASP 627 atom OD2” value (Table A1 (H-Bonds), ASP 627 OD2) was 3.32, the “H-bond distance to MASP-2 GLY 656 atom N” value (Table A1 (H-Bonds), GLY 656 N) was 3.06 and the “H-bond distance to MASP-2 GLY 656 atom O” value (Table A1 (H-Bonds), GLY 656 O) was 2.7. For the same compound, the “H-bond distance to MASP-2 SER 654 atom O” value (Table A1 (H-Bonds), SER 654 O) was 2.78, the “H-bond distance to MASP-2 SER 657 atom O” value (Table A1 (H-Bonds), SER 657 O) was 2.72 and the “H-bond distance to MASP-2 SER 657 atom OG” value (Table A1 (H-Bonds), SER 657 OG) was 2.62. The “van der Waals contact distance, MASP-2 HIS 483 atom CD2” value (Table A2-1) was 3.78, the “van der Waals contact distance, MASP-2 PRO 606 atom O” value (Table A2-4) was 3.81 and the “van der Waals contact distance, MASP-2 amino acid atom to compound atom” value (Table A2-9 second part, ARG 630, AA atoms N, NE, NH1) was 3.71. The “van der Waals contact distance, SER 654 C to compound atom” value (Table A2-11) was 3.88, the “van der Waals contact distance, VAL 653 CG1 to compound atom” value (Table A2-11) was 3.61 and the “van der Waals contact distance, TRP 655 C to compound atom” value (Table A2-12) was 3.7. For the same compound, the “van der Waals contact distance TRP 655 atom CE3” value (Table A2-13, MASP-2 TRP 655 CE3, compound atom in line below) was 3.74, the “van der Waals contact distance, MASP-2 amino acid atom to compound atom” value (Table A2 section before Table A2-8) was 3.86 and the “Ligand-pharmacophore element distance, pharmacophore element C2” value was 2.91. For the same compound, the “Ligand-pharmacophore element distance, pharmacophore element C3” value was 0, the “Ligand-pharmacophore element distance, pharmacophore element C4” value was 0 and the “Ligand-pharmacophore element distance, pharmacophore element C5” value was 0. For the same compound, the “Ligand-pharmacophore element distance, pharmacophore element C6” value was 0, the “Ligand-pharmacophore element distance, pharmacophore element C7” value was 0 and the “Ligand-pharmacophore element distance, pharmacophore element CA1” value was 1.7. For the same compound, the “Ligand-pharmacophore element distance, pharmacophore element CA2” value was 0, the “Ligand-pharmacophore element distance, pharmacophore element CA3” value was 0 and the “Ligand-pharmacophore element distance, pharmacophore element CA4” value was 0. The “Ligand-pharmacophore element distance, pharmacophore element CA5” value was 0.84, the “Ligand-pharmacophore element distance, pharmacophore element CA6” value was 0 and the “d(CA1,N1)” value [1] was 1.85. The “d(CA1,O1)” value [1] was 4.66, the “d(CA1,O2)” value [1] was 6.47 and the “d(CA6,O1)” value [1] was 3.43. The “d(CA6,O2)” value [1] was 1.13, the “d(H4,O1)” value [1] was 3.14 and the “d(H4,O2)” value [1] was 5.11. The “d(O1,O2)” value [1] was 3.18, the “d(O2,H3)” value was 7.20 and the “a(CA1, O1, O2)” value (Table A6-1 pharmacophore angle) was 137.45. For the same compound, the “a(O1, CA6, O2)” value (Table A6-1 pharmacophore angle) was 87.17, the “a(O1, O2, H4)” value (Table A6-1 pharmacophore angle) was 143.64 and the “A(N1, CA1, O1) a)” value (Table A6-1 pharmacophore angle, all compounds with protonatable center N1 except Methyl-amino-pyridine) was 173.84. For the same compound, the “a(O1, O2, H3)” value was 153.97, the “Pharmacophore torsion angle a(CA6, O1, H4, O2)” value [2] was −19.90 and the “Pharmacophore torsion angle a(H4, O1, O2, H3)” value [2] was 94.72. For the same compound, the “Pharmacophore torsion angle a(N1, CA1, O2, H4)” value [2] was −132.36 and the “Pharmacophore torsion angle a(O1, H4, O2, CA1)” value [2] was −60.21.
`Cc1nc(N)ccc1CNC(=O)C(C)NC(=O)C1CC(c2cccc3ccccc23)CCN1.Cl.Cl` (centres unmarked) [1297_3] was tested, and the “Ligand-pharmacophore element distance, pharmacophore element C2” value was 0.28, the “Ligand-pharmacophore element distance, pharmacophore element C3” value was 0.23 and the “Ligand-pharmacophore element distance, pharmacophore element C4” value was 0. The “Ligand-pharmacophore element distance, pharmacophore element C5” value was 0, the “Ligand-pharmacophore element distance, pharmacophore element C6” value was 0 and the “Ligand-pharmacophore element distance, pharmacophore element C7” value was 0. For the same compound, the “Ligand-pharmacophore element distance, pharmacophore element CA1” value was 0.33, the “Ligand-pharmacophore element distance, pharmacophore element CA2” value was 0.22 and the “Ligand-pharmacophore element distance, pharmacophore element CA3” value was 0. For the same compound, the “Ligand-pharmacophore element distance, pharmacophore element CA4” value was 0.94, the “Ligand-pharmacophore element distance, pharmacophore element CA5” value was 0 and the “Ligand-pharmacophore element distance, pharmacophore element CA6” value was 0. The “d(C3,CA1)” value [1] was 2.85, the “d(CA1,N1)2” value [1] was 1.39 and the “d(CA1,O1)” value [1] was 4.43. The “d(CA1,O2)” value [1] was 3.92, the “d(H4,O1)” value [1] was 4.37 and the “d(H4,O2)” value [1] was 3.85. For the same compound, the “d(O1,O2)” value [1] was 3.55, the “d(N2,C2)” value was 1.43 and the “d(N2,CA2)” value was 5.64. For the same compound, the “d(O2,H3)” value was 4.22, the “d(O2,N2)” value was 2.72 and the “a(C3, CA1, O1)” value (Table A6-1 pharmacophore angle) was 150.32. For the same compound, the “a(CA1, O1, O2)” value (Table A6-1 pharmacophore angle) was 107.42, the “a(O1, O2, H4)” value (Table A6-1 pharmacophore angle) was 129.38 and the “a(N1, CA1, O1) b)” value (Table A6-1 pharmacophore angle) was 174.78. The “a(O1, O2, H3)” value was 143.41, the “a(O1, O2, N2)” value was 144.44 and the “a(O2, N2, C2)” value was 132.31. The “a(O2, N2, CA2)” value was 156.50, the “Pharmacophore torsion angle a(C3, CA1, O1, H4)” value [2] was 28.95 and the “Pharmacophore torsion angle a(H4, O1, O2, H3)” value [2] was 50.29. For the same compound, the “Pharmacophore torsion angle a(H4, O1, O2, N2)” value [2] was 141.16, the “Pharmacophore torsion angle a(N1, CA1, O1, H4)” value [2] was 22.83 and the “Pharmacophore torsion angle a(O1, H4, O2, CA1)” value [2] was −86.03. The “Pharmacophore torsion angle a(O1, O2, N2, C2)” value [2] was 114.36, the “Pharmacophore torsion angle a(O1, O2, N2, CA2)” value [3] was 129.56 and the “Pharmacophore torsion angle a(O1, O2, N2, CA4)” value [3] was 108.64.
`Cc1nc(N)ccc1CNC(=O)[C@H](C)NC(=O)[C@H]1C[C@@H](c2cccc3ccccc23)CCN1.Cl.Cl` [1297_2] was tested, and the “Ligand-pharmacophore element distance, pharmacophore element C2” value was 0.34, the “Ligand-pharmacophore element distance, pharmacophore element C3” value was 0.17 and the “Ligand-pharmacophore element distance, pharmacophore element C4” value was 0. The “Ligand-pharmacophore element distance, pharmacophore element C5” value was 0, the “Ligand-pharmacophore element distance, pharmacophore element C6” value was 0 and the “Ligand-pharmacophore element distance, pharmacophore element C7” value was 0. The “Ligand-pharmacophore element distance, pharmacophore element CA1” value was 0.47, the “Ligand-pharmacophore element distance, pharmacophore element CA2” value was 0.22 and the “Ligand-pharmacophore element distance, pharmacophore element CA3” value was 0. For the same compound, the “Ligand-pharmacophore element distance, pharmacophore element CA4” value was 1.25, the “Ligand-pharmacophore element distance, pharmacophore element CA5” value was 0 and the “Ligand-pharmacophore element distance, pharmacophore element CA6” value was 0. For the same compound, the “d(C3,CA1)” value [1] was 2.88, the “d(CA1,N1)2” value [1] was 1.37 and the “d(CA1,O1)” value [1] was 4.48. For the same compound, the “d(CA1,O2)” value [1] was 3.69, the “d(H4,O1)” value [1] was 4.41 and the “d(H4,O2)” value [1] was 3.62. For the same compound, the “d(O1,O2)” value [1] was 3.57, the “d(N2,C2)” value was 1.47 and the “d(N2,CA2)” value was 5.78. The “d(O2,H3)” value was 3.98, the “d(O2,N2)” value was 2.84 and the “a(C3, CA1, O1)” value (Table A6-1 pharmacophore angle) was 150.01. For the same compound, the “a(CA1, O1, O2)” value (Table A6-1 pharmacophore angle) was 103.93, the “a(O1, O2, H4)” value (Table A6-1 pharmacophore angle) was 128.26 and the “a(N1, CA1, O1) b)” value (Table A6-1 pharmacophore angle) was 174.54. The “a(O1, O2, H3)” value was 144.48, the “a(O1, O2, N2)” value was 141.45 and the “a(O2, N2, C2)” value was 127.48. For the same compound, the “a(O2, N2, CA2)” value was 154.79, the “Pharmacophore torsion angle a(C3, CA1, O1, H4)” value [2] was 29.10 and the “Pharmacophore torsion angle a(H4, O1, O2, H3)” value [2] was 51.75. For the same compound, the “Pharmacophore torsion angle a(H4, O1, O2, N2)” value [2] was 141.21, the “Pharmacophore torsion angle a(N1, CA1, O1, H4)” value [2] was 23.27 and the “Pharmacophore torsion angle a(O1, H4, O2, CA1)” value [2] was −87.24. For the same compound, the “Pharmacophore torsion angle a(O1, O2, N2, C2)” value [2] was 116.16, the “Pharmacophore torsion angle a(O1, O2, N2, CA2)” value [3] was 126.84 and the “Pharmacophore torsion angle a(O1, O2, N2, CA4)” value [3] was 106.20.
